Columns and labels:
Format in all cases: physicochemical
[1] = UV spectrum (λmax) of the isolated compound
Source text: In other embodiments, the present invention provides methods and techniques for determining the UV-absorbing capacity of the compounds as defined herein. The UV-absorbing properties of the compounds defined herein can be determined by spectrophotometer according to techniques and methods well known in the art. For example, ultraviolet-visible spectroscopy or ultraviolet-visible spectrophotometry (UV-Vis or UV/Vis) may be used to calculate the wavelength of maximal absorption (λmax) of the compound.

[2] = In vitro UV protection performance (SPF in vitro, UVAPF, Critical Wavelength) by the Colipa UVA in vitro Method on PMMA plates; details: for Critical Wavelength λc value: PMMA plate, after UV exposure, 90% of the absorbance integral 290 to 400 nm, >= 370 nm = broad-spectrum; for protection against UVA rays (UVAPF in vitro), in words: UVAPF in vitro measurements; for UVAPF: thin film 0.75 mg/cm^2 on PMMA plate, after UV irradiation (pre-irradiation 800 J/m^2-eff); for SPF in vitro: thin film 0.75 mg/cm^2 on roughened PMMA plate, absorbance before UV exposure
Protocol: The following compounds were evaluated by an in vitro study for the Sun Protection Factor (SPF) in vitro, the UVA Protection Factor (UVAPF) and the Critical Wavelength value using the Colipa UVA in vitro Method.
For determining the SPF in vitro value, the protection performance of the compounds against erythemally-effective UV radiation, largely confined to the UVB (290-320 nm) and short-wavelength UVA (320-340) region was calculated from the measured in vitro transmittance. The in vitro UVAPF, the UVA protection (320-400 nm) was calculated from the measured in vitro transmittance after irradiation. The Critical Wavelength Value was defined as the wavelength at which the integral of the spectral absorbance curve reached 90% of the integral over the UV spectrum from 290 to 400 nm. It has been settled that this value must be equal or over 370 nm so as to classify the product as broad-spectrum. The study consisted in a comparative assay of non-treated plates against plates treated with each of the compounds and was based on the evaluation of UV-transmittance through a thin film of sunscreen sample spread on a roughened substrate, before an after exposure to a controlled dose of UV radiation from a UV source. A Kontron 933 spectrophotomer equipped with a UV source, an integrating sphere and a monochromatic light able to deliver a flow of energy between 290 and 400 nm was used. The transmittance values were measured at 1 nm intervals. A 10-4 precision laboratory balance was used to control deposited product weight. The irradiation was provided by Sunset Atlas CPS+ with standard filter. Temperature regulation of the equipment was done in the range of 25-35° C. A pre-irradiation dose of 4 times 200 J/m^2-eff (800 J/m^2-eff) was delivered. The substrate was the material to which the sunscreen product was applied. Polymethylmethacrylate (PMMA) plates were used and were roughened on one side to a three-dimensional surface topography of 5 micrometers. Each compound was weighted and applied evenly to the PMMA plate with a 2-phase spreading to achieve a 0.75 mg/cm^2 weight/surface ratio. Spreading was performed with a light spreading move for approximately 30 seconds followed by spreading with greater pressure for approximately 30 seconds. The resulting sample was left to equilibrate for 15 minutes in the dark at room temperature to ensure a self-leveling if the formula. To account for lack of photostability, a pre-irradiation was necessary. The pre-irradiation dose was 4 minimal erythema dose (MEDs), equivalent to 800 J/m^2-eff. Five measurements of spectral irradiance transmitted for each wavelength through the PMMA plate covered with the sunscreen product were obtained after pre-irradiation of the sunscreen product [P1( ), P2( ), P3( ), P4( ) and P5( )]. For each compound, mean absorbance values were determined from at least three individual PMMA plates. To validate the accuracy of the results, a control product with an established SPF of 18-20, Lot 11T0313 was tested simultaneously with the compounds. SPF in vitro was calculated for each plate using the following equation (Colipa 2011):
[formula] Where: • E( )=Erythema action spectrum (CEI-1987) • I( )=Spectral irradiance of the UV source • A0( )=Mean monochromatic absorbance measurements per plate of the test compound layer before UV exposure, at each wavelength • d=Wavelength step (1 nm) Calculation of the UVAPF for Each Plate after UV Irradiation (Colipa 2011)
[formula] Where: • P( )=PPD action spectrum • I( )=Spectral irradiance of the UV source • A( )=Mean monochromatic absorbance measurements per plate of the test compound layer after UV exposure, at each wavelength • C=Coefficient of adjustment • d=Wavelength step (1 nm) Calculation of the Critical Wavelength (FDA 2011)
[formula] Where: • A( )=Mean monochromatic absorbance measurements per plate of the compound layer after UV exposure, at each wavelength • d=Wavelength step (1 nm) […]

[3] = UVA/UVB absorption of compound films on glass slides, with and without 20 hours ageing under UV (Xenon instrument); details: for Tested compound UVA % / Tested compound UVB %: absorption A = (Tslide−Tslide+sample)/Tslide×100; for Plate + tested compound UVA % / Plate + tested compound UVB %: transmission T (%)
Protocol: Compounds IE1, IF1, IA2, IE4, IA1, IE2, ID2 and ID3 were evaluated for their UV absorption properties. Samples were prepared as follows: 20 mg of each of the compounds were dissolved into 1 ml of methanol to yield 20 g/L solutions. The solutions were then applied onto two glass slides each. For each compound, one of the slides was aged for 20 hours under UV (Xenon instrument). Samples were then analyzed using a UVA-UVB spectrophotometer in transmission T (%) mode and compared to the non-aged slides. Absorption (A) was calculated using the following formula: Asample=(Tslide−Tslide+sample)/Tslide×100

[4] = 20 g/L methanol solution on glass slide, no ageing
[5] = ageing for 20 hours under UV (Xenon instrument)

Structure (SMILES)	UV: λmax ([1]; MeOH/water with both 0.1% formic acid) [nm]	UV: λmax ([1]; MeOH/water) [nm]	Critical Wavelength λc value [2] [nm]	protection against UVA rays (UVAPF in vitro), in words [2]	UVAPF [2]	SPF in vitro [2]	Tested compound UVA % ([3]; ageing for 20 hours under UV) [%]	Tested compound UVB % ([3]; ageing for 20 hours under UV) [%]	Tested compound UVA % ([3]; no ageing) [%]	Tested compound UVB % ([3]; no ageing) [%]	Plate + tested compound UVA % [3, 4] [%]	Plate + tested compound UVB % [3, 4] [%]	Plate + tested compound UVA % [3, 5] [%]	Plate + tested compound UVB % [3, 5] [%]
COc1ccc(/N=C2/C=C(NCC(=O)O)CCC2)cc1 [(E)-2-((3-((4-methoxyphenyl)imino)cyclohex-1-en-1-yl)amino)acetic acid]	~318													
COc1ccc(/N=C2/C=C(Nc3ccc(OC)cc3)CC(C)(C)C2)cc1 [(E)-N,N′-(5,5-dimethylcyclohex-1-ene-1-yl-3-ylidene)bis(4-methoxyaniline)]		~345												
COc1ccc(/N=C2\CC(C)(C)CC3=C2SCC(C(=O)O)N3)cc1 (stereo not shown) [IA1]			390	good protection against UVA rays	8.7	2.4	95.1	98.6	98.9	95.8	0.99	1.88	4.33	0.64
COc1ccc(/N=C2/C=C(NCC(=O)O)CC(C)(C)C2)cc1 [ID2]							98.9	99.0	99.5	99.2	0.44	0.34	1.00	0.46
COc1ccc(/N=C2/C=C(NCC(=O)O)CCC2)cc1 [ID3]							98.6	98.6	99.5	99.3	0.47	0.33	1.28	0.62
CC1(C)CC2=C(SCC(C(=O)O)N2)/C(=N/c2ccc(C(=O)NC(C)(C)C)cc2)C1 (stereo not shown) [IE1]			391	good protection against UVA rays	13.5	3.4	98.2	97.7	98.9	98.4	1.00	0.73	1.63	1.02

Other lines, results leading:

UV: λmax ([1]; MeOH/water with both 0.1% formic acid) [nm]	UV: λmax ([1]; MeOH/water) [nm]	Critical Wavelength λc value [2] [nm]	protection against UVA rays (UVAPF in vitro), in words [2]	UVAPF [2]	SPF in vitro [2]	Tested compound UVA % ([3]; ageing for 20 hours under UV) [%]	Tested compound UVB % ([3]; ageing for 20 hours under UV) [%]	Tested compound UVA % ([3]; no ageing) [%]	Tested compound UVB % ([3]; no ageing) [%]	Plate + tested compound UVA % [3, 4] [%]	Plate + tested compound UVB % [3, 4] [%]	Plate + tested compound UVA % [3, 5] [%]	Plate + tested compound UVB % [3, 5] [%]	Structure (SMILES)
						95.0	95.6	96.1	95.3	3.51	2.12	4.43	1.97	CC1(C)CC2=C(SCC(C(=O)O)N2)/C(=N/c2ccccc2)C1 (stereo not shown) [IE2, (E)-6,6-dimethyl-8-(phenylimino)-3,4,5,6,7,8-hexahydro-2H-benzo[b][1,4]thiazine-3-carboxylic acid]
		390	good protection against UVA rays	8.6	4.5	98.4	98.2	99.5	99.0	0.49	0.46	1.46	0.81	CC1(C)CC2=C(SCC(C(=O)O)N2)/C(=N/c2ccc(F)cc2)C1 (stereo not shown) [IE4]
		390		4.1	2.1	99.6	99.1	99.7	99.3	0.24	0.31	0.37	0.39	COc1ccc(/N=C2\CC(C)(C)CC3=C2SCC(C(=O)O)N3)cc1OC (stereo not shown) [IF1]

From US9487474B2, “Imino compounds as protecting agents against ultraviolet radiations” (Elkimia, Inc., priority 2012, dated 2016)
